Key:
[1] = test system: NDRG4 or OSMR plasmid material; assay: Real-time MSP assay designs on plasmid material; parameters: key to Ct / Duplicate Ct / Average Ct: cycle number at which amplification curve crosses threshold; conditions: for PCR efficiency: from standard curve on plasmid material
Experimental: Plasmid material corresponding to a promoter region of NDRG4 and OSMR gene was used to test additional assay designs. The plasmid for the standard curve was generated as follows: the promoter sequence as defined by the primers is PCR amplified and cloned (using suitable isolated and bisulphite modified cell line DNA). The sequence is verified by sequencing and compared to the published promoter sequence. A serial dilution of either NDRG4 or OSMR plasmid material (2×10^6 to 2×10^1 copies/5 μl) was loaded in duplicate. 5 μl of plasmid dilution or buffer (non template control) was added to a 20 μl PCR mix containing the specified primer and beacon detector sequences as previously described. Results were generated using the SDS 2.2 software from Applied Biosystems with automatic baseline and threshold settings. Data were exported as Ct values (cycle number at which the amplification curves cross the threshold value, set automatically by the software).

[2] = test system: methylated gene promoters in FFPE tissue DNA; assay: Real-time MSP on colon tissue samples; parameters: species or system human; conditions: for Specificity (%) / Sensitivity (%): 50 cases (adenoma + carcinoma) vs 39 controls, tissue
Experimental: Real-time MSP was applied on a 7900HT fast real-time PCR system (Applied Biosystems). 2.4 μl of the modified DNA (equivalent to 2.5 μg unconverted DNA) was added to a PCR mix (total volume 12 μl) containing buffer (16.6 mM (NH4)2SO4, 67 mM Tris (pH 8.8), 6.7 mM MgCl2, 10 mM β-mercaptoethanol), dNTPs (5 mM), forward primer (6 ng), reverse primer (18 ng), molecular beacon (0.16 μM), BSA (0.1 μg), and Jumpstart DNA Taq polymerase (0.4 units; Sigma Aldrich). Cycle program used was as follows: 5 minutes 95° C., followed by 45 cycles of 30 seconds 95° C., 30 seconds 57° C. (51° C. for APC), and 30 seconds 72° C., followed by 5 minutes 72° C. A standard curve (2×106—20 copies) was included to determine copy numbers of unknown samples by interpolation of their Ct values to the standard curve.
Marker selection in colon tissue: Based on re-expression, 224 different gene assays representing 145 gene promotors were tested on the Base5 methylation profiling platform (data not shown, see reference 1 for details). The 37 most differentially methylated gene sequences assessing 29 gene promoters were validated on retrospectively collected tumors from 65 colorectal cancer patients (all stages) and 74 distant resection ends (histopathologically normal) using real-time MSP. Several markers reliably detected CRC in those tissue samples (data not shown). The results were confirmed on an independent test set containing 39 tissue controls (non-cancerous), 34 carcinomas and 16 adenomas. Several combinations of the tested markers reliably detected CRC with high specificity and sensitivity.
The ten best performing markers GATA5, GATA4, SFRP1, SFRP2, APC, MGMT, NDRG4, OSMR, JPH3 and ADAM23 were validated with primer sets and beacon probes as specified in Table 24. In addition to the colon test genes, the independent reference gene β-Actin (ACT) was also measured. The ratios between the colon test genes and ACT were calculated, and are the test result of the assay.
Marker candidates identified by re-expression were screened using 37 real-time methylation specific PCR (real-time MSP) assays. These assays were used to assess the methylation status of 29 gene promoters in 293 formalin-fixed paraffin-embedded (FFPE) tissue samples collected from various clinics. Samples included 99 carcinomas of various stages, 16 adenomas, 63 samples from patients with cancer other than CRC (20 breast [stages I-III], 22 bladder [stages I-III], 21 lung [stages I and II]), 39 samples from patients with no evidence of cancer and 76 distant resection ends (histopathologically normal) from CRC patients. These samples were divided into training and independent test sets, and used to select the gene methylation assays best able to discriminate between cancerous and non-cancerous samples. The training set included retrospectively collected tumors from 65 colorectal cancer patients (all stages) and 74 distant resection ends. Using the 10 best performing genes the results were confirmed on an independent test set containing 59 samples from patients with cancer other than CRC, 39 non-cancerous controls and 50 cancer cases (34 carcinomas and 16 adenomas).
The individual performance of the 10 best performing tissue markers OSMR, SFRP1, GATA4, SFRP2, NDRG4, ADAM23, GATA5, MGMT, APC and JPH3 is shown in FIG. 7, when the analytical cut-off was set to give 100% specificity, except for JPH3 where a specificity of 95% was obtained (based on the 39 non-cancerous controls). In addition to the colon test genes, the independent reference gene β-Actin (ACT) was also measured. The ratios between the colon test genes and ACT were calculated, and are the test result of the assay.

[3] = test system: methylated gene promoters in fecal DNA; assay: Real-time MSP on stool (fecal) DNA; parameters: species or system human; conditions: fecal samples; for Sens adenoma: 13 samples; for Sens CRC: 15 samples; for Spec: 19 samples
Text: A standardized multicenter screening trial (The Netherlands) was initiated in 2006. In this trial, non symptomatic subjects aged 50 or above are screened with colonoscopy, FOBT and real-time MSP using DNA from stool and blood. In addition, prospectively collected stool samples from multiple centers (Germany and The Netherlands) were used. In these trials, symptomatic patients, attending a Gastroenterology clinic and ultimately diagnosed with CRC, provided a stool sample for use in real-time MSP. From the ongoing trials 147 stool samples were available for the present study. 3 main categories of stool samples were used: 67 samples with no suspicious findings, 58 adenomas and 22 samples from patients covering all stages of CRC, with 90% representing early stage disease.
After defecation in a special bucket, patients added 250 ml of stool homogenization buffer (Amresco, Solon, Ohio, USA) to the sample. Samples were shipped to the laboratory and further processed within 72 hours after defecation. Stool homogenization buffer was added to a ratio 1:7, and the samples were homogenized and aliquoted in portions of 32 ml.
Single aliquots (32 ml containing the equivalent of 4 g of stool) were centrifuged for 5 minutes at 2540 rcf at 20° C. The supernatant was retained and centrifuged a second time (10 minutes at 16500 rcf at 4° C.). 22 ml of the supernatant obtained following the second centrifugation step was incubated with 5 μl Rnase A for 60 minutes at 37° C. Total DNA was then SodiumAcetate (pH 5.2)-isopropanol precipitated and washed with 70% ethanol. The DNA was resuspended in 4 ml 1×TE (pH 7.4). 400 μl 10× buffer (240 mM EDTA (pH=8.0), 750 mM NaC), 400 μl 10% SDS, and 20 μl Proteinase K (20 mg/ml) was added and the samples were incubated at 48° C. overnight at constant shaking (225 RPM). After centrifugation (3000 RCF for 30 seconds at room temperature), 5 ml of Phenol:Chloroform:Isoamylalcohol (25:24:1, v/v:Invitrogen) was added and incubated for 10 minutes at room temperature shaking at 225 RPM and centrifuged for 5 minutes at 3000 RCF. The aqueous layer was transferred to a new tube containing 5 ml of Phenol:Chloroform:Isoamylalcohol. Again, the samples were incubated for 10 minutes at room temperature shaking at 225 RPM and centrifuged for 5 minutes at 3000 RCF at room temperature. The aqueous layer was transferred to a new tube and DNA was precipitated by adding 500 μl 7.5 M Ammonium Acetate, 5 μl glycogen and 10 ml of cold 100% Ethanol (−20° C.), further incubated at −20° C. for at least 1 hour and centrifuged at 15000 RCF for 30 minutes at 4° C. Pellets were washed with 3.5 ml freshly prepared 70% Ethanol and air dried. Pellets were finally resuspended in 2 ml of LoTE pH 8.0 and stored at −80° C., until further processing.
An upscaled DNA modification step was applied to 32 μg of the obtained DNA. 16 Aliquots of 2 μg of DNA were subjected to bisulfite modification in 96-wells format on a pipetting robot (Tecan), using the EZ-96DNA Methylation kit (Zymo Research), according to the manufacturer's protocol. Basically, aliquots of 45 μl were mixed with 5 μl of M-Dilution Buffer and incubated at 37° C. for 15 minutes shaking at 1100 rpm. Then 100 μl of the diluted CT Conversion Reagent was added and samples were incubated at 70° C. for 3 hours, shaking at 1100 rpm in the dark. After conversion, the samples were desalted by incubation on ice for 10 minutes and addition of 400 μl of M-Binding buffer. The samples were loaded on a Zymo-Spin I Column in a collection tube and after centrifugation washed with 200 μl of M-Wash Buffer. 200 μl of M-Desulphonation Buffer was put onto the column and incubated at room temperature for 15 minutes. After centrifugation of the columns, they were washed twice with 200 μl of M-Wash Buffer. Finally, the DNA was washed from the column in 50 μl Tris-HCl 1 mM pH8.0 and stored at −80° C., until further processing.

[4] = plasmid standard, quantity 20 copies
[5] = plasmid standard, quantity 200 copies
[6] = plasmid standard, quantity 2000 copies
[7] = plasmid standard, quantity 20000 copies
[8] = plasmid standard, quantity 200000 copies
[9] = plasmid standard, quantity 2000000 copies
[10] = 16 adenoma tissue samples vs 39 controls
[11] = 34 carcinoma tissue samples vs 39 controls

Substance: OSMR_4 (DNA TTTGGTCGGGGTAGGAGTAGC; listed as DNA, chemistry not given here)
- PCR efficiency [1]: 100.8%
- Average Ct [1, 4]: 34.37
- Ct [1, 4]: 34.63
- Duplicate Ct [1, 4]: 34.12
- Average Ct [1, 5]: 31.28
- Ct [1, 5]: 31.37
- Duplicate Ct [1, 5]: 31.18
- Average Ct [1, 6]: 28.08
- Ct [1, 6]: 28.24
- Duplicate Ct [1, 6]: 27.91
- Average Ct [1, 7]: 24.72
- Ct [1, 7]: 24.79
- Duplicate Ct [1, 7]: 24.64
- Average Ct [1, 8]: 21.31
- Ct [1, 8]: 21.56
- Duplicate Ct [1, 8]: 21.05
- Average Ct [1, 9]: 18.07
- Ct [1, 9]: 18.24
- Duplicate Ct [1, 9]: 17.90

Substance: GATA4 (DNA AGGTTAGTTAGCGTTTTAGGGTC; listed as DNA, chemistry not given here)
- Sensitivity [2, 10]: 88%
- Specificity [2, 10]: 100%
- Sensitivity [2, 11]: 74%
- Specificity [2, 11]: 100%
- Specificity (%) [2]: 100%
- Sensitivity (%) ([2]; first cut off ratio): 78%
- Sensitivity (%) ([2]; second cut off ratio, between ( )): (82) %
- Sens adenoma [3]: 15%
- Sens CRC [3]: 73%
- Spec [3]: 100%

Substance: OSMR_3 (DNA TTTGGTCGGGGTAGGAGTAGC; listed as DNA, chemistry not given here)
- Ct ([1]; NTC (non template control), quantity 0): 38.13
- PCR efficiency [1]: 97.2%
- Average Ct [1, 4]: 33.98
- Ct [1, 4]: 34.18
- Duplicate Ct [1, 4]: 33.77
- Average Ct [1, 5]: 30.59
- Ct [1, 5]: 30.51
- Duplicate Ct [1, 5]: 30.67
- Average Ct [1, 6]: 27.19
- Ct [1, 6]: 27.22
- Duplicate Ct [1, 6]: 27.16
- Average Ct [1, 7]: 23.90
- Ct [1, 7]: 23.97
- Duplicate Ct [1, 7]: 23.83
- Average Ct [1, 8]: 20.35
- Ct [1, 8]: 20.41
- Duplicate Ct [1, 8]: 20.29
- Average Ct [1, 9]: 17.04
- Ct [1, 9]: 16.93
- Duplicate Ct [1, 9]: 17.16

Substance: OSMR (3) (DNA TTTGGTCGGGGTAGGAGTAGC; listed as DNA, chemistry not given here)
- Sensitivity [2, 10]: 88%
- Specificity [2, 10]: 100%
- Sensitivity [2, 11]: 88%
- Specificity [2, 11]: 100%
- Specificity (%) [2]: 100%
- Sensitivity (%) ([2]; first cut off ratio): 88%
- Sens adenoma [3]: 8%
- Sens CRC [3]: 67%
- Spec [3]: 100%

Substance: MGMT (DNA TTTCGACGTTCGTAGGTTTTCGC; listed as DNA, chemistry not given here)
- Sensitivity [2, 10]: 63%
- Specificity [2, 10]: 100%
- Sensitivity [2, 11]: 35%
- Specificity [2, 11]: 100%
- Specificity (%) [2]: 100%
- Sensitivity (%) ([2]; first cut off ratio): 44%

— patent US12215389B2, “Compositions for detecting epigenetic modifications” (EXACT SCIENCES CORPORATION, priority 2007, dated 2025)
